Results on 7 molecules are retold here after patent US11020457B2, “Compositions and methods for protecting the kidney from ischemia reperfusion injury” (University of Virginia Patent Foundation, priority 2013, dated 2021).

Experiment [1] relates to hepcidin. The conditions noted are these: within 2-5 days after the start of the treatment; cited from earlier work.
For experiment [2], the system named is splenocytes from WT mice. Description: Iron stimulation of splenocytes, IL-6 secretion by ELISA. It counts as cell-based. The conditions noted are these: iron treatment for 4 hours, vs untreated and hepcidin-treated cells, p<0.005; FIG. 10c. The procedure:
Splenocytes were harvested from 10-week-old B6 male mice. After excising the spleen, red blood cells were lysed and the remaining splenocytes were seeded at 1×10^6 cells/mL in 24-well tissue culture plates and cultured under 5% CO2 at 37° C. for 24 hours. The culture medium consisted of RPMI 1640 medium supplemented with 10% fetal calf serum (FCS), 100 U/mL penicillin, 100 μg/mL streptomycin, 1% non-essential amino acids (Gibco/Life Technologies, Foster, Calif., USA), 2 mM L-glutamine (Sigma), and 50/μM 2-mercaptoethanol. After resting for 24 hours, the cells were treated with 10 μM […] (FAC), 1 μg/mL hepcidin or saline for 4 hours. The cell culture supernatants were harvested and quantified for the levels of IL-6 by ELISA (eBioscience).
(In an ELISA, binding on a coated surface is turned into a signal by an enzyme label.)

For experiment [3], the system named is animals models of AKI. The conditions noted are these: cited from earlier work; for renal IRI severity: literature (37-39; 7, 37).
The test system of experiment [4] is hepcidin. The conditions noted are these: hepcidin inducers; cited from earlier work.
Experiment [5] concerns rat model of AI. The conditions noted are these: AI induced with PG-APS; cited from earlier work.

Entries after “also recorded” stand apart in the source; their conditions may differ.

On to low-molecular-weight heparin, for which, in experiment [1], the “decrease of serum hepcidin concentrations” value is given as around 80%.

Turning to ferrous sulfate [reference compound], the “IL-6 secretion into supernatants” value in experiment [2] is on record as “significantly increased splenocytes IL-6 secretion”.

With `CC(=O)N(O)CCCCCNC(=O)CCC(=O)N(O)CCCCCNC(=O)CCC(=O)N(O)CCCCCN` [desferrioxamine], in experiment [3] (iron chelation), the “protection in animal models of AKI” value was “induces protection in diverse animals models of AKI”. Besides, the “renal IRI severity” value in experiment [3] is “attenuate IRI; also recorded: provide protection and significantly improve its severity and outcomes”.

Regarding `CC(C)Oc1ccc2c(=O)c(-c3ccccc3)coc2c1` [ipriflavone], in experiment [4], the “active concentration, fold below that required for genistein's effect” value is 10 fold.

As to `O=C(CCCCCCC(=O)Nc1ccccc1)NO` [vorinostat], the “active concentration, fold below that required for genistein's effect” value in experiment [4] is reported as 10 fold.

superoxide dismutase: the “renal IRI severity” value in experiment [3] is “attenuate IRI”.

Consider `c1ccc2c(-c3cnn4cc(-c5ccc(N6CCNCC6)cc5)cnc34)ccnc2c1` [LDN-193189], for which the “anemia of inflammation (AI)” value in experiment [5] was “effectively reversed anemia”.
